In PMC5693111, “Small molecule Photoregulin3 prevents retinal degeneration in the Rho^P23H mouse model of retinitis pigmentosa” (eLife, 2017):

Target: T1, NR2E3 (Homo sapiens, UniProt Q9Y5X4)
T1 construct: aa 90–410 (expressed as His8-MBP-TEV fusion, tag removed)
Assay: isothermal titration calorimetry ([…] PR3 injected into […] NR2E3; one site model, qualitative)
Assay type: binding

T1 sequence (Q9Y5X4 90-410): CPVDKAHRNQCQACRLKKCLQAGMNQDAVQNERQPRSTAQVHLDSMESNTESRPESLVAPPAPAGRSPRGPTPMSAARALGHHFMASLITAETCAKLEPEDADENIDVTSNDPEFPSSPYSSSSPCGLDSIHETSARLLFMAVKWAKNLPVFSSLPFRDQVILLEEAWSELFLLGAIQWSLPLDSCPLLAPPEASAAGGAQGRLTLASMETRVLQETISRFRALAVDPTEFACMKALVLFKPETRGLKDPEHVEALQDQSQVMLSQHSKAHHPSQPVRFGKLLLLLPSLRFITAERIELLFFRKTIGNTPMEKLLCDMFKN

For `COc1cc2nc(CN3CC=C(c4ccccc4)CC3)nc(O)c2cc1OC` [PR3, Photoregulin3], the Kd was roughly 67 µM.
